{"source": "paper PMC12668304", "about": "“A Triple Threat Against Ovarian Cancer: Os(II)‐Pt(IV)‐Ceritinib Conjugates for Photodynamic Therapy, Chemotherapy, and Immunogenic Cell Death Induction” (Angewandte Chemie (International Ed. in English), 2025)", "key": {"[1]": {"test_system": "A2780 MCTSs", "assay": "(Photo-)cytotoxicity on 3D multicellular tumour spheroids, resazurin assay", "type": "cell-based, human", "conditions": "for IC50: normoxic, one week of incubation", "procedure": "A2780 spheroids (ca. 500 µm in diameter) were treated with increasing concentrations of the compounds and after 24 h of incubation, the medium was replaced with fresh medium, and the cells were either kept in the dark or irradiated for 1 h at 740 nm. Images of the spheroids were taken every 24 h for 3 days.\nAdditionally, the phototoxicity was tested via a fluorometric resazurin assay in A2780 MCTSs (Table 3). […] (Figure S29). […] This can be attributed to the different biological endpoints and time frames of the assays: spheroid diameter was monitored over 72 h, whereas resazurin measurements were performed after 7 days, potentially capturing delayed cytotoxic effects due to differences in drug cellular uptake.\n4 h of incubation, the conversion of resazurin into resorufin was determined upon excitation at 540 nm and measurement of its emission at 590 nm using a Cytation 5 Imaging Reader from BioTek. The obtained data was analysed with the GraphPad Prism software\nMCTS were cultured using ultra-low attachment 96 wells plates from Corning (Fisher Scientific 15329740). A2780 cells were seeded at a density of 1,500 cells per well in 100 μL of RPMI. Within 2-3 days, MCTSs have approximately 500 μm of diameter. The formation as well as integrity and diameter of the MCTSs were monitored by microscopy.\n(Photo-)cytotoxicity on 3D multicellular tumor spheroids (MCTS)\nAfter 2 days of growing at 37 °C in 5% CO2, the medium was removed, and MCTSs were treated by adding 100 μL of the medium in the well with increasing concentrations of compounds (Os-Pt-Cer, Os, Ceritinib, Oxaliplatin, cisplatin, and Ce6 as additional control). For untreated reference MCTSs, only half of the medium was added with fresh medium. After 24 hours, the MCTSs were divided into two identical groups. The first group was strictly kept in the dark. The second group was irradiated at 740 nm for 1 h (12.60 J·cm-2) using a LUMOS-BIO photoreactor (Atlas Photonics). After the irradiation, all groups were incubated additional 7 days. Thereafter, medium was replaced with 100 μL of fresh medium containing resazurin (0.2 mg/mL). After 24 h of incubation at 37 °C, 5% CO 2, plates were read using a SpectraMaxM2 Microplate Reader ( λexc = 540 nm; λread = 590 nm). Fluorescence data were normalised, and data were fitted using GraphPad Prism Software, and IC 50 was calculated by non - linear regression. Changes in the size and shape of MCTS were monitored every 24 h using Cytation 5 Imaging Reader from BioTek, objective x4. […]\nFigure S29. Cell viability graphs after one week of incubation. Studied compounds were incubated for 24 h, thereafter the medium was renovated. For PDT, plates were irradiated at 740 nm for 1h using a LUMOS-BIO photoreactor (Atlas Photonics). For both PDT and regular cytotoxicity, cells were incubated for one week at 37 °C, 5 % CO2. The medium was renovated each two days. Then, the medium was replaced with 100 µL of fresh medium containing 0.2 mg/mL resazurin (Acros Organics). After 24 h of incubation, the fluorescence signal of the resazurin product was recorded (λexc = 540 nm; λem = 590 nm) using a Cytation 5 Cell Imaging Multi-Mode Reader (Biotek - Agilent).\n(1 picture or pasted object on this page, not shown here)"}, "[2]": {"test_system": "A549 cells", "assay": "(Photo-)cytotoxicity on 2D cell monolayers, resazurin assay", "type": "cell-based", "conditions": "for IC50: A549, normoxic, 4 h exposure", "procedure": "The 2D cytotoxicity and phototoxicity profiles of Os‐Pt‐Cer and controls, were evaluated in a panel of cancerous cell lines, including A2780 (ovarian carcinoma), A549 (non‐small cell lung carcinoma), and MCA205 (murine fibrosarcoma), as well as a non‐cancerous retinal pigment epithelial cell line (RPE‐1). Cells were treated with the compounds (0.003–100 µM) for 4 h, either kept in the dark or irradiated at 670 nm (13.5 J cm^− ^2) (Table S4 and Figure S22) or 740 nm (12.6 J cm^− ^2) and viability was assessed 44 h post‐treatment. To verify robustness, the incubation was extended to 72 h. […]\nHuman ovarian cancer (A2780) cells and mouse fibrosarcoma cells (MCA205) were cultured in RPMI media. Retinal pigment epithelium (RPE -1) cells were cultured in DMEM/F -12 medium. Lung cancer cells (A549) were cultured in F -12K medium. These cell lines were complemented with 10% of fetal bovine serum, 100 U/mL penicillin -streptomycin mixture, and maintained in a humidified atmosphere […]\n(Photo-)cytotoxicity on 2D cell monolayers\nThe cytotoxicity of the compounds was assessed by measuring cell viability using a resazurin assay.\nThe cells were seeded in triplicates in 96 well plates with a density of 10 4 cells per well in 100 μL of media. After 24 h, the medium was removed, and the cells were treated with increasing concentrations (0.003 → 100 µM) of the compounds diluted in cell media , achieving a total volume of 100 μL/well.\nThe cells were incubated with the compound for 4 h (final incubation time 48 h) or 24 h (final incubation time 72 h). After this time, the media was removed and replaced with 100 μL of fresh medium. For the phototoxicity studies, the cells were exposed to light with an Atlas Photonics LUMOS BIO irradiation system. Each well was constantly irradiated at 670 nm (60 min, 13.50 J·cm-2) or 740 nm (60 min, 12.60 J·cm-2). During the irradiation, the temperature of the plate was maintained at 37 °C. The cells were grown in the incubator for an additional 44 or 48 h, respectively. For the determination of the dark cytotoxicity, the cells were not irradiated and after the medium exchange directly incubated for 44 h.\nAfter this time, the medium was replaced with fresh medium containing resazurin (0.2 mg/mL). After […]\n4 h of incubation, the conversion of resazurin into resorufin was determined upon excitation at 540 nm and measurement of its emission at 590 nm using a Cytation 5 Imaging Reader from BioTek. The obtained data was analysed with the GraphPad Prism software […]\nAfter 24 h of incubation at 37 °C, 5% CO 2, plates were read using a SpectraMaxM2 Microplate Reader ( λexc = 540 nm; λread = 590 nm). Fluorescence data were normalised, and data were fitted using GraphPad Prism Software, and IC 50 was calculated by non - linear regression. Changes in the size and shape of MCTS were monitored every 24 h using Cytation 5 Imaging Reader from BioTek, objective x4.\nIntracellular distribution by confocal fluorescence microscopy\n10^4 cells/well (A2780 cells) were seeded in complete medium (RPMI) in µ -slide 8 well (Ibidi) (100 µl/well) and left for 24 h to attach to the bottom. Then, the culture medium was removed , and 100 µl of solution of the corresponding complexes (5 µM) was added. The complexes were incubated with the cells for 4 hours. Thereafter, the medium was removed and replaced by RPMI without phenol red , and Hoechst and MitoTracker Green were added at a final concentration of 1 µg/mL. They were incubated with the cells for 30 min in the dark at 37 °C. Images were collected in a sequential mode in a Leica TCS SP8 confocal microscope with a 60x oil immers ion objective, a line average of 4, and a format of […]\n(MTG)→ 500 -550nm, and 488 nm (complexes)→ 680 -730 nm. The confocal pinhole was 1 Airy unit.\nImages were analysed with LAS X Flim FCS software.\nIntracellular distribution by ICP -MS"}, "[3]": {"conditions": "Homo sapiens, 168 h, dark, read-out: IC50 Dark"}, "[4]": {"conditions": "Homo sapiens, dark, total 48 h incubation, read-out: IC50 Dark"}}, "note": "Like-named read-outs stand apart in the source and are kept apart here.", "data": [{"smiles": "O=C1[O][Pt]2([NH][C@@H]3CCCC[C@H]3[NH]2)[O]C1=O", "note": "[Oxaliplatin]", "values": [{"measurement": "IC50", "setting": "[1]; dark, read-out: IC50 Dark", "value": "0.5 ± 0.7", "unit": "µM"}, {"measurement": "IC50", "setting": "[2]; dark, total 48 h incubation, read-out: IC50 Dark", "value": "2.8 ± 0.13", "unit": "µM"}]}, {"smiles": "Cc1cc(Nc2ncc(Cl)c(Nc3ccccc3S(=O)(=O)C(C)C)n2)c(OC(C)C)cc1C1CCNCC1", "note": "[Ceritinib]", "values": [{"measurement": "IC50", "setting": "[1]; [3]", "value": "> 5", "unit": "µM"}, {"measurement": "IC50", "setting": "[2]; [4]", "value": "3.8 ± 0.09", "unit": "µM"}]}, {"smiles": "C=Cc1c(C)c2cc3nc(c(CC(=O)O)c4[nH]c(cc5nc(cc1[nH]2)C(C)=C5CC)c(C)c4C(=O)O)[C@@H](CCC(=O)O)[C@@H]3C", "note": "[Ce6, Chlorin e6]", "values": [{"measurement": "PI", "setting": "[1]", "value": "≥7"}, {"measurement": "IC50", "setting": "[1]; [3]", "value": "> 5", "unit": "µM"}, {"measurement": "IC50", "setting": "[1]; Homo sapiens, 740 nm (60 min, 12.60 J·cm^−2), read-out: IC50 Irrad. 740 nm", "value": "0.7 ± 0.4", "unit": "µM"}, {"measurement": "PI (IC50 dark/IC50 irradiation 740 nm)", "setting": "[2]; A549", "value": "≥17"}, {"measurement": "IC50", "setting": "[2]; Homo sapiens, 740 nm (60 min, 12.60 J·cm^−2), total 48 h, read-out: IC50 Irrad. 740 nm", "value": "5.86 ± 0.82", "unit": "µM"}, {"measurement": "IC50", "setting": "[2]; [4]", "value": "> 100", "unit": "µM"}]}]}
